{
  "source": "patent US9937235B2",
  "about": "“Lipidated peptides as anti-obesity agents” (USTAV ORGANICKE CHEMIE A BIOCHEMIE AKADEMIE VED CR, V.V.I, priority 2012, dated 2018)",
  "key": {"[1]": {"molecular_target": "T1, rat PrRP receptor (GPR10) in RC-4B/C cells (Rattus norvegicus, UniProt Q64121)", "T1 construct": "host or cells: RC-4B/C rat pituitary cell line", "T1 sequence (Q64121 1-370)": "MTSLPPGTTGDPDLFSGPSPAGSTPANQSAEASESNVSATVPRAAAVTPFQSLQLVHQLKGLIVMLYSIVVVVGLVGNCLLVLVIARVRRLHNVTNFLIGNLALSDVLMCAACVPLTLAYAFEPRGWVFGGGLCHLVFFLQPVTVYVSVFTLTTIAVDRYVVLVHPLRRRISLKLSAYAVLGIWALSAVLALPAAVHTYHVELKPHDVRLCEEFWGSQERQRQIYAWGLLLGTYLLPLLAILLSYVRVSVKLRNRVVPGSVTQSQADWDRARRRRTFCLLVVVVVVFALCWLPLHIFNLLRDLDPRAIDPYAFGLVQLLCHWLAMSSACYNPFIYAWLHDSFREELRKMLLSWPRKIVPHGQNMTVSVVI", "experiment": "Competitive binding to rat pituitary RC-4B/C cells", "details": "^125I-rat PrRP31, RC-4B/C cells"}, "[2]": {"test_system": "fasted C57BL/6 mice", "experiment": "Food intake in fasted mice after SC administration", "type": "in vivo, mouse", "details": "for food intake in fasted mice (in words): SC (peripheral) administration; for food intake / % control: SC administration; for % control: food intake vs saline", "how_it_was_run": "(§1)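 Male C57BL/6 mice, food-deprived 17 h, received saline, PrRP or lipidated analogs either SC at 1-10 mg/kg or ICV into the third ventricle at 4 nmol/mouse.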"}, "[3]": {"test_system": "fasted C57BL/6 mice", "experiment": "Food intake in fasted mice after ICV administration", "type": "in vivo", "details": "4 nmol/mouse; for % control: food intake vs saline", "how_it_was_run": "as §1"}},
  "note": "Where a SMILES comes first, the peptide text is derived from it. [ ]: non-standard residue; d: D form. The star is where a group is joined. Palmitoyl = CCCCCCCCCCCCCCCC(=O)*; Myristoyl = CCCCCCCCCCCCCC(=O)*; Nle = CCCC[C@H](N)C(=O)O; Dap = NC[C@H](N)C(=O)O",
  "data": [
    {"smiles": "CCCCCCCCCCCCCC(=O)NC[C@H](N)C(=O)N[C@@H](CCCNC(=N)N)C(=O)N[C@@H](C)C(=O)N[C@@H](Cc1c[nH]cn1)C(=O)N[C@@H](CCC(N)=O)C(=O)N[C@@H](Cc1c[nH]cn1)C(=O)N[C@@H](CO)C(=O)N[C@@H](CCCC)C(=O)N[C@@H](CCC(=O)O)C(=O)N[C@H](C(=O)N[C@@H](CCCNC(=N)N)C(=O)N[C@H](C(=O)N1CCC[C@H]1C(=O)N[C@@H](CC(=O)O)C(=O)N[C@H](C(=O)N[C@@H](CC(N)=O)C(=O)N1CCC[C@H]1C(=O)N[C@@H](C)C(=O)N[C@@H](Cc1c[nH]c2ccccc12)C(=O)N[C@@H](Cc1ccc(O)cc1)C(=O)N[C@H](C(=O)NCC(=O)N[C@@H](CCCNC(=N)N)C(=O)NCC(=O)N[C@H](C(=O)N[C@@H](CCCNC(=N)N)C(=O)N1CCC[C@H]1C(=O)N[C@H](C(=O)NCC(=O)N[C@@H](CCCNC(=N)N)C(=O)N[C@@H](Cc1ccccc1)C(N)=O)C(C)C)[C@@H](C)CC)[C@@H](C)O)[C@@H](C)CC)[C@@H](C)O)[C@@H](C)O", "note": "[Analog 5] (H-[Dap](Myristoyl)RAHQHS[Nle]ETRTPDINPAWYTGRGIRPVGRF-NH2)", "values": [
      {"measurement": "% of PrRP31 binding", "setting": "[1]", "value": 601, "unit": "%"},
      {"measurement": "food intake in fasted mice (in words)", "setting": "[2]", "value": "significantly decreased food intake"},
      {"measurement": "dose dependence of the lowering of food intake", "setting": "[2]; SC administration, 1, 2, 5 and 10 mg/kg, FIG. 5 and 6", "value": "dose dependent"},
      {"measurement": "food intake", "setting": "[2]; 45 minutes, 10 mg/kg", "value": 0.05, "unit": "g"},
      {"measurement": "% control", "setting": "[2]; 45 minutes, 10 mg/kg", "value": 25, "unit": "%"},
      {"measurement": "food intake", "setting": "[2]; 300 minutes, 10 mg/kg", "value": 0.18, "unit": "g"},
      {"measurement": "% control", "setting": "[2]; 300 minutes, 10 mg/kg", "value": 21, "unit": "%"},
      {"measurement": "food intake", "setting": "[3]; 45 minutes", "value": 0.35, "unit": "g"},
      {"measurement": "% control", "setting": "[3]; 45 minutes", "value": 62, "unit": "%"},
      {"measurement": "food intake", "setting": "[3]; 300 minutes", "value": 0.96, "unit": "g"},
      {"measurement": "% control", "setting": "[3]; 300 minutes", "value": 73, "unit": "%"}
    ]},
    {"smiles": "CCCCCCCCCCCCCCCC(=O)NC[C@H](N)C(=O)N[C@@H](CCCNC(=N)N)C(=O)N[C@@H](C)C(=O)N[C@@H](Cc1c[nH]cn1)C(=O)N[C@@H](CCC(N)=O)C(=O)N[C@@H](Cc1c[nH]cn1)C(=O)N[C@@H](CO)C(=O)N[C@@H](CCCC)C(=O)N[C@@H](CCC(=O)O)C(=O)N[C@H](C(=O)N[C@@H](CCCNC(=N)N)C(=O)N[C@H](C(=O)N1CCC[C@H]1C(=O)N[C@@H](CC(=O)O)C(=O)N[C@H](C(=O)N[C@@H](CC(N)=O)C(=O)N1CCC[C@H]1C(=O)N[C@@H](C)C(=O)N[C@@H](Cc1c[nH]c2ccccc12)C(=O)N[C@@H](Cc1ccc(O)cc1)C(=O)N[C@H](C(=O)NCC(=O)N[C@@H](CCCNC(=N)N)C(=O)NCC(=O)N[C@H](C(=O)N[C@@H](CCCNC(=N)N)C(=O)N1CCC[C@H]1C(=O)N[C@H](C(=O)NCC(=O)N[C@@H](CCCNC(=N)N)C(=O)N[C@@H](Cc1ccccc1)C(N)=O)C(C)C)[C@@H](C)CC)[C@@H](C)O)[C@@H](C)CC)[C@@H](C)O)[C@@H](C)O", "note": "[Analog 6] (H-[Dap](Palmitoyl)RAHQHS[Nle]ETRTPDINPAWYTGRGIRPVGRF-NH2)", "values": [
      {"measurement": "% of PrRP31 binding", "setting": "[1]", "value": 1072, "unit": "%"},
      {"measurement": "food intake in fasted mice (in words)", "setting": "[2]", "value": "significantly decreased food intake"},
      {"measurement": "food intake", "setting": "[2]; 45 minutes, 5 mg/kg", "value": 0, "unit": "g"},
      {"measurement": "% control", "setting": "[2]; 45 minutes, 5 mg/kg", "value": 0, "unit": "%"},
      {"measurement": "food intake", "setting": "[2]; 300 minutes, 5 mg/kg", "value": 0.14, "unit": "g"},
      {"measurement": "% control", "setting": "[2]; 300 minutes, 5 mg/kg", "value": 14, "unit": "%"},
      {"measurement": "food intake", "setting": "[3]; 45 minutes", "value": 0.38, "unit": "g"},
      {"measurement": "% control", "setting": "[3]; 45 minutes", "value": 71, "unit": "%"},
      {"measurement": "food intake", "setting": "[3]; 300 minutes", "value": 1.3, "unit": "g"},
      {"measurement": "% control", "setting": "[3]; 300 minutes", "value": 100, "unit": "%"}
    ]}
  ]
}
